From the supplement of paper PMC10307832

compound: Cc1nc(C(=O)NCC(=O)O)c(O)c2ccc(Oc3ccccc3)cc12 [FG-4592] + Nc1ncn([C@H]2C[C@H](O)[C@@H](CO)O2)c(=O)n1 [Decitabine] (partner 2 µM); test: relative viability (nuclei count vs DMSO), 5 days (fraction); higher = more cells survive; settings: first compound 8 µM
Outline: (§1)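 The day after seeding in 1536-well plates, lung cancer cell lines were treated by pin tool with a single drug, or with a fixed anchor-drug dose together with five library-drug doses (not always all listed) in √10 steps. After 5 days, a combined fix-and-stain solution (final 0.05% Triton X-100, 1% formaldehyde, 1 ug/ml Hoechst) was added. Nuclei counted on 4× images gave relative viability as treated counts over vehicle counts, reported as the median of duplicate plates.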

Compared with H3255, COR-L23 is lower in relative viability: 0.557 for the first, 0.362 for the second.

Compared with COR-L 105, LOU-NH91 is higher in relative viability: 0.641 for the first, 0.812 for the second.

Going from ChaGo-K-1 to NCI-H2170, the relative viability falls from 0.466 to 0.356.

First: NCI-H2405
Second: HOP-62
The relative viability of the first is higher: 0.671 for the first, 0.185 for the second.

Compared with A549, SW 900 is higher in relative viability: 0.207 for the first, 0.349 for the second.

First: NCI-H1648
Second: NCI-H2009
The relative viability of the first is higher: 0.635 for the first, 0.349 for the second.

Compared with NCI-H661, SK-LU-1 is lower in relative viability: 0.484 for the first, 0.476 for the second.

With NCI-H2023 the relative viability was 0.203.

compound: Cc1nc(C(=O)NCC(=O)O)c(O)c2ccc(Oc3ccccc3)cc12 [FG-4592] + NC(=O)Nc1cc(-c2cccc(F)c2)sc1C(=O)N[C@H]1CCCNC1 [AZD7762] (partner 0.2 µM); test: as above; settings: first compound 0.08 µM
Outline: as §1

Going from NCI-H522 to NCI-H727, the relative viability falls from 0.78 to 0.51.

Compared with NCI-H1703, NCI-H1993 is higher in relative viability: 0.138 for the first, 0.769 for the second.

Compared with NCI-H838, LCLC-103H is lower in relative viability: 0.899 for the first, 0.609 for the second.

Compared with NCI-H2126, EMC-BAC-2 is higher in relative viability: 1.04 for the first, 1.17 for the second.

First: NCI-H2085
Second: HCC-366
The relative viability of the first is higher: 0.983 for the first, 0.243 for the second.

Going from NCI-H1666 to NCI-H596, the relative viability rises from 0.81 to 1.1.

Going from LK-2 to NCI-H2087, the relative viability rises from 0.273 to 1.34.

Compared with NCI-H2342, H3255 is higher in relative viability: 0.456 for the first, 0.902 for the second.

Going from LOU-NH91 to ChaGo-K-1, the relative viability rises from 0.755 to 0.846.

Compared with NCI-H2170, NCI-H2405 is lower in relative viability: 0.755 for the first, 0.659 for the second.

First: HOP-62
Second: NCI-H1648
The relative viability of the first is lower: 0.501 for the first, 0.622 for the second.

For CAL-12T, the relative viability was 0.594.

same assay, conditions: first compound 0.253 µM

Compared with NCI-H522, NCI-H727 is lower in relative viability: 0.717 for the first, 0.555 for the second.

Compared with NCI-H1703, NCI-H1993 is higher in relative viability: 0.135 for the first, 0.723 for the second.

First: NCI-H838
Second: LCLC-103H
The relative viability of the first is higher: 0.888 for the first, 0.741 for the second.

Going from NCI-H2126 to EMC-BAC-2, the relative viability falls from 0.951 to 0.903.

Compared with NCI-H2085, HCC-366 is lower in relative viability: 0.956 for the first, 0.248 for the second.

Going from NCI-H1666 to NCI-H596, the relative viability rises from 0.764 to 1.08.

Compared with LK-2, NCI-H2087 is higher in relative viability: 0.355 for the first, 1.24 for the second.

Going from NCI-H2342 to H3255, the relative viability rises from 0.459 to 0.802.

Going from LOU-NH91 to ChaGo-K-1, the relative viability rises from 0.733 to 0.888.

Compared with NCI-H2170, NCI-H2405 is lower in relative viability: 0.834 for the first, 0.642 for the second.

Going from HOP-62 to SW 900, the relative viability rises from 0.509 to 0.545.

First: NCI-H1648
Second: CAL-12T
The relative viability of the first is higher: 0.662 for the first, 0.59 for the second.

same assay, conditions: first compound 0.8 µM

Compared with NCI-H727, NCI-H1703 is lower in relative viability: 0.763 for the first, 0.12 for the second.

First: NCI-H838
Second: LCLC-103H
The relative viability of the first is higher: 0.976 for the first, 0.635 for the second.

First: NCI-H2126
Second: EMC-BAC-2
The relative viability of the first is higher: 0.918 for the first, 0.901 for the second.

First: NCI-H2085
Second: HCC-366
The relative viability of the first is higher: 0.905 for the first, 0.28 for the second.

Going from NCI-H1666 to NCI-H2087, the relative viability rises from 0.899 to 1.32.

First: NCI-H2342
Second: H3255
The relative viability of the first is lower: 0.526 for the first, 0.995 for the second.

Going from LOU-NH91 to ChaGo-K-1, the relative viability rises from 0.717 to 0.856.

First: NCI-H2170
Second: NCI-H2405
The relative viability of the first is higher: 0.816 for the first, 0.756 for the second.

Compared with HOP-62, CAL-12T is higher in relative viability: 0.476 for the first, 0.513 for the second.

same assay, conditions: first compound 2.53 µM

First: NCI-H522
Second: NCI-H727
The relative viability of the first is higher: 0.666 for the first, 0.563 for the second.

Going from NCI-H1993 to NCI-H838, the relative viability rises from 0.892 to 0.981.

Going from LCLC-103H to NCI-H2126, the relative viability rises from 0.785 to 1.06.

Going from EMC-BAC-2 to NCI-H2085, the relative viability falls from 1.08 to 0.992.

Compared with HCC-366, NCI-H1666 is higher in relative viability: 0.364 for the first, 0.9 for the second.

Compared with NCI-H596, LK-2 is lower in relative viability: 1.15 for the first, 0.358 for the second.

Going from NCI-H2342 to H3255, the relative viability rises from 0.403 to 0.754.

Compared with LOU-NH91, ChaGo-K-1 is higher in relative viability: 0.723 for the first, 0.93 for the second.

Compared with NCI-H2170, NCI-H2405 is lower in relative viability: 0.817 for the first, 0.649 for the second.

Compared with HOP-62, SW 900 is higher in relative viability: 0.472 for the first, 0.614 for the second.

Compared with NCI-H1648, CAL-12T is lower in relative viability: 0.714 for the first, 0.523 for the second.

same assay, conditions: first compound 8 µM

Compared with NCI-H522, NCI-H727 is lower in relative viability: 0.819 for the first, 0.482 for the second.

Going from NCI-H1703 to NCI-H1993, the relative viability rises from 0.126 to 0.56.

First: NCI-H838
Second: LCLC-103H
The relative viability of the first is higher: 0.916 for the first, 0.686 for the second.

Going from NCI-H2126 to EMC-BAC-2, the relative viability falls from 1.01 to 1.

Compared with NCI-H2085, HCC-366 is lower in relative viability: 0.893 for the first, 0.269 for the second.

Going from NCI-H1666 to NCI-H596, the relative viability rises from 0.875 to 0.952.

First: LK-2
Second: NCI-H2087
The relative viability of the first is lower: 0.342 for the first, 1.38 for the second.

Going from NCI-H2342 to H3255, the relative viability rises from 0.438 to 0.831.

First: LOU-NH91
Second: ChaGo-K-1
The relative viability of the first is higher: 0.732 for the first, 0.66 for the second.

First: NCI-H2170
Second: NCI-H2405
The relative viability of the first is higher: 0.643 for the first, 0.592 for the second.

Compared with HOP-62, SW 900 is higher in relative viability: 0.529 for the first, 0.541 for the second.

First: NCI-H1648
Second: CAL-12T
The relative viability of the first is higher: 0.921 for the first, 0.717 for the second.

compound: CC1=CC(=C(N1C2=CC=C(C=C2)Cl)C)C(=O)CN3CCCCC3 [IU1-47] + O=C(c1cc(Cc2n[nH]c(=O)c3ccccc23)ccc1F)N1CCN(C(=O)C2CC2)CC1 [Olaparib] (partner 8 µM); test: as above; settings: first compound 0.08 µM
Outline: as §1

First: NCI-H522
Second: NCI-H727
The relative viability of the first is higher: 0.724 for the first, 0.661 for the second.

Compared with NCI-H1650, EBC-1 is lower in relative viability: 0.756 for the first, 0.685 for the second.

First: NCI-H1703
Second: NCI-H1993
The relative viability of the first is lower: 0.387 for the first, 1.22 for the second.

Compared with SW 1573, NCI-H838 is higher in relative viability: 0.592 for the first, 0.809 for the second.

Going from LCLC-103H to NCI-H520, the relative viability falls from 0.794 to 0.32.

First: NCI-H2126
Second: EMC-BAC-2
The relative viability of the first is higher: 0.972 for the first, 0.507 for the second.

First: NCI-H2085
Second: Calu-6
The relative viability of the first is higher: 0.777 for the first, 0.618 for the second.

Going from HCC-366 to NCI-H1666, the relative viability rises from 0.511 to 0.757.

First: NCI-H596
Second: LK-2
The relative viability of the first is lower: 0.676 for the first, 0.935 for the second.

Compared with NCI-H2087, NCI-H2342 is lower in relative viability: 0.587 for the first, 0.49 for the second.

First: SK-MES-1
Second: H3255
The relative viability of the first is higher: 0.823 for the first, 0.64 for the second.

Going from COR-L23 to COR-L 105, the relative viability rises from 0.382 to 0.817.

Going from IA-LM to LOU-NH91, the relative viability rises from 0.748 to 1.02.

First: ChaGo-K-1
Second: NCI-H2170
The relative viability of the first is lower: 0.433 for the first, 0.705 for the second.

Going from NCI-H2405 to HOP-62, the relative viability falls from 0.876 to 0.428.

Going from A549 to SW 900, the relative viability rises from 0.467 to 0.859.

First: NCI-H1648
Second: NCI-H2009
The relative viability of the first is higher: 1.16 for the first, 0.662 for the second.

Cell Line NCI-H661 has a relative viability of 0.798.
